{
  "source": "patent US4202975A",
  "about": "“Isoxazolo[3,4-d]pyrimidines” (Takeda Chemical Industries, Ltd., priority 1976, dated 1980)",
  "type_in_all_cases": "in vivo",
  "key": {"[1]": {"system": "phenylquinone-writhing", "assay": "Analgesic action (mouse, phenylquinone-writhing test)", "conditions": "10 mice", "source_text": "|(mouse, phenylquinone-writhing test)"}, "[2]": {"system": "Carrageenin edema", "assay": "Antiinflammatory action (rat, Carrageenin edema)", "conditions": "6 rats", "source_text": "Antiinflammatory action\n(Rat, Carrageenin edema)"}, "[3]": {"system": "Mouse", "assay": "Acute toxicity (mouse, oral, mortality)", "conditions": "500 mg/kg oral; observed for 7 days after dosing, mortality after 8 days", "source_text": "The acute toxicity data for some representative isoxazolo[3,4-d]pyrimidines(I) are given below in Table 3.\n(Mouse, observed for 7 days after dosing, mortality"}, "[4]": {"conditions": "12.5 mg/kg oral, second experiment, control 17.3 ± 2.6"}, "[5]": {"conditions": "25 mg/kg oral, first experiment, control 12.7 ± 2.5"}, "[6]": {"conditions": "25 mg/kg oral, second experiment, control 17.3 ± 2.6"}, "[7]": {"conditions": "50 mg/kg oral, first experiment, control 12.7 ± 2.5"}, "[8]": {"conditions": "6.25 mg/kg oral, second experiment, control 0.512 ± 0.017"}, "[9]": {"conditions": "12.5 mg/kg oral, second experiment, control 0.512 ± 0.017"}, "[10]": {"conditions": "50 mg/kg oral, second experiment, control 17.3 ± 2.6"}, "[11]": {"conditions": "12.5 mg/kg oral, first experiment, control 0.543 ± 0.032"}, "[12]": {"conditions": "25 mg/kg oral, first experiment, control 0.543 ± 0.032"}, "[13]": {"conditions": "25 mg/kg oral, third experiment, control 13.7 ± 1.2"}},
  "data": [
    {"smiles": "Cn1c(=O)c2conc2n(C)c1=O", "note": "[Ib, 5,7-Dimethyl-5H,7H-isoxazolo[3,4-d]pyrimidine-4,6-dione]", "values": [
      {"measurement": "% Suppression", "setting": "[1]; [4]", "result": 54.9, "unit": "%"},
      {"measurement": "Average number of writhings & standard error", "setting": "[1]; [4]", "result": "7.8 ± 1.9"},
      {"measurement": "% Suppression", "setting": "[1]; [5]", "result": 63.8, "unit": "%"},
      {"measurement": "Average number of writhings & standard error", "setting": "[1]; [5]", "result": "4.6 ± 1.2"},
      {"measurement": "% Suppression", "setting": "[1]; [6]", "result": 77.5, "unit": "%"},
      {"measurement": "Average number of writhings & standard error", "setting": "[1]; [6]", "result": "3.9 ± 1.0"},
      {"measurement": "% Suppression", "setting": "[1]; [7]", "result": 92.1, "unit": "%"},
      {"measurement": "Average number of writhings & standard error", "setting": "[1]; [7]", "result": "1.0 ± 0.8"},
      {"measurement": "% Suppression", "setting": "[2]; [8]", "result": 21.9, "unit": "%"},
      {"measurement": "Volume of edema & standard error", "setting": "[2]; [8]", "result": "0.400 ± 0.037", "unit": "mL"},
      {"measurement": "% Suppression", "setting": "[2]; [9]", "result": 32.0, "unit": "%"},
      {"measurement": "Volume of edema & standard error", "setting": "[2]; [9]", "result": "0.348 ± 0.014", "unit": "mL"},
      {"measurement": "Mortality", "setting": "[3]", "result": "1/5"}
    ]},
    {"smiles": "COc1ccc2c3c1O[C@H]1[C@@H](O)C=C[C@H]4[C@@H](C2)N(C)CC[C@@]341", "note": "[Codeine phosphate, reference compound]", "values": [
      {"measurement": "% Suppression", "setting": "[1]; [5]", "result": 72.4, "unit": "%"},
      {"measurement": "Average number of writhings & standard error", "setting": "[1]; [5]", "result": "3.5 ± 1.2"}
    ]},
    {"smiles": "Cc1onc2c1c(=O)n(C)c(=O)n2C", "note": "[Ia, 3,5,7-Trimethyl-5H,7H-isoxazolo[3,4-d]pyrimidine-4,6-dione]", "values": [
      {"measurement": "% Suppression", "setting": "[1]; [5]", "result": 54.3, "unit": "%"},
      {"measurement": "Average number of writhings & standard error", "setting": "[1]; [5]", "result": "5.8 ± 2.4"},
      {"measurement": "% Suppression", "setting": "[1]; [6]", "result": 67.1, "unit": "%"},
      {"measurement": "Average number of writhings & standard error", "setting": "[1]; [6]", "result": "5.7 ± 1.5"},
      {"measurement": "% Suppression", "setting": "[1]; [7]", "result": 55.9, "unit": "%"},
      {"measurement": "Average number of writhings & standard error", "setting": "[1]; [7]", "result": "5.6 ± 2.3"},
      {"measurement": "% Suppression", "setting": "[1]; [10]", "result": 93.1, "unit": "%"},
      {"measurement": "Average number of writhings & standard error", "setting": "[1]; [10]", "result": "1.2 ± 0.5"},
      {"measurement": "% Suppression", "setting": "[2]; [11]", "result": 21.4, "unit": "%"},
      {"measurement": "Volume of edema & standard error", "setting": "[2]; [11]", "result": "0.427 ± 0.030", "unit": "mL"},
      {"measurement": "% Suppression", "setting": "[2]; [12]", "result": 35.5, "unit": "%"},
      {"measurement": "Volume of edema & standard error", "setting": "[2]; [12]", "result": "0.350 ± 0.061", "unit": "mL"},
      {"measurement": "Mortality", "setting": "[3]", "result": "1/5"}
    ]},
    {"smiles": "CCn1c(=O)c2conc2n(CC)c1=O", "note": "[Ic]", "values": [
      {"measurement": "% Suppression", "setting": "[1]; [13]", "result": 47.4, "unit": "%"},
      {"measurement": "Average number of writhings & standard error", "setting": "[1]; [13]", "result": "7.2 ± 1.5"}
    ]}
  ]
}
